In the supplement of paper PMC11451515:

Tested on: P12-Ichikawa
Assay: cell viability relative to DMSO control; higher = less cytotoxic
Conditions: 48 h
How it was run: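 Cells were incubated for 48 h at 37°C before CellTiter-Glo One luminescence was read. The cells were NOMO1 or SEM (500 cells/well) or P12-Ichikawa (1000 cells/well) leukemia cells, adapted for at least four passages in each medium and seeded in 1536-well plates (5 μl). Dosing used library compounds in DMSO applied by pin over 11 threefold points, 47 μM to 0.79 nM. Viability is the per-plate percentage of DMSO wells, with cell-free wells as background.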

[1] = HPLM + 10% dialyzed FBS, 0.000781 µM
[2] = HPLM + 10% dialyzed FBS, 0.00234 µM
[3] = HPLM + 10% dialyzed FBS, 0.00702 µM
[4] = HPLM + 10% dialyzed FBS, 0.0211 µM
[5] = HPLM + 10% dialyzed FBS, 0.0632 µM
[6] = HPLM + 10% dialyzed FBS, 0.19 µM
[7] = HPLM + 10% dialyzed FBS, 0.569 µM
[8] = HPLM + 10% dialyzed FBS, 1.71 µM
[9] = HPLM + 10% dialyzed FBS, 5.12 µM
[10] = HPLM + 10% dialyzed FBS, 15.4 µM
[11] = HPLM + 10% dialyzed FBS, 46.1 µM
[12] = RPMI 5 mM glucose + 10% FBS, 0.000781 µM
[13] = RPMI 5 mM glucose + 10% FBS, 0.00234 µM
[14] = RPMI 5 mM glucose + 10% FBS, 0.00702 µM
[15] = RPMI 5 mM glucose + 10% FBS, 0.0211 µM
[16] = RPMI 5 mM glucose + 10% FBS, 0.0632 µM
[17] = RPMI 5 mM glucose + 10% FBS, 0.19 µM
[18] = RPMI 5 mM glucose + 10% FBS, 0.569 µM
[19] = RPMI 5 mM glucose + 10% FBS, 1.71 µM
[20] = RPMI 5 mM glucose + 10% FBS, 5.12 µM
[21] = RPMI 5 mM glucose + 10% FBS, 15.4 µM
[22] = RPMI 5 mM glucose + 10% FBS, 46.1 µM
[23] = RPMI 5 mM glucose + 10% dialyzed FBS, 0.000781 µM
[24] = RPMI 5 mM glucose + 10% dialyzed FBS, 0.00234 µM
[25] = RPMI 5 mM glucose + 10% dialyzed FBS, 0.00702 µM
[26] = RPMI 5 mM glucose + 10% dialyzed FBS, 0.0211 µM
[27] = RPMI 5 mM glucose + 10% dialyzed FBS, 0.0632 µM
[28] = RPMI 5 mM glucose + 10% dialyzed FBS, 0.19 µM
[29] = RPMI 5 mM glucose + 10% dialyzed FBS, 0.569 µM
[30] = RPMI 5 mM glucose + 10% dialyzed FBS, 1.71 µM
[31] = RPMI 5 mM glucose + 10% dialyzed FBS, 5.12 µM
[32] = RPMI 5 mM glucose + 10% dialyzed FBS, 15.4 µM
[33] = RPMI 5 mM glucose + 10% dialyzed FBS, 46.1 µM

Structure (SMILES)	cell viability [1]	cell viability [2]	cell viability [3]	cell viability [4]	cell viability [5]	cell viability [6]	cell viability [7]	cell viability [8]	cell viability [9]	cell viability [10]	cell viability [11]	cell viability [12]	cell viability [13]	cell viability [14]	cell viability [15]	cell viability [16]	cell viability [17]	cell viability [18]	cell viability [19]	cell viability [20]	cell viability [21]	cell viability [22]	cell viability [23]	cell viability [24]	cell viability [25]	cell viability [26]	cell viability [27]	cell viability [28]	cell viability [29]	cell viability [30]	cell viability [31]	cell viability [32]	cell viability [33]
CC1=CC=CC=C1N2\C(=N/C3=C(C(=CC=C3)C)C2=O)C[N]4C=NC5=C4N=CN=C5N	115%	124%	122%	85%	120%	118%	108%	106%	79.5%	78.2%	82.2%	113%	116%	107%	79.6%	109%	98.1%	97.6%	81.2%	62.8%	60.5%	57.9%	107%	123%	116%	81.7%	128%	112%	108%	95.6%	70.2%	56%	63.9%
[NH2][Pt]1([NH2])[O]CC(=O)[O]1	93.6%	98.4%	101%	95.7%	105%	102%	102%	101%	105%	103%	105%	98.5%	88.3%	96.9%	99.5%	104%	99.2%	102%	88.5%	92.4%	95.2%	102%	86.2%	93%	96.4%	89.4%	92.1%	89.9%	97.8%	89.6%	91.1%	92.4%	93.8%
CC\1=C(C(\N=C(/N1)C2=CC(=NC=C2)Cl)C3=C(F)C=C(Cl)C=C3)/C(=O)NC4=C(F)C=C5[NH]N=CC5=C4 (centres undefined)	103%	103%	109%	112%	111%	107%	112%	115%	106%	77.5%	4.67%	87.6%	114%	118%	104%	102%	113%	110%	113%	110%	71.6%	8.24%	105%	121%	110%	116%	118%	118%	121%	124%	112%	82.9%	14.7%
CN1[C@@H]2CC(OC(=O)[C@@H](CO)c3ccccc3)C[C@H]1[C@H]1O[C@H]12 (some centres undefined)	97%	94.9%	103%	103%	101%	101%	101%	103%	98.7%	92.9%	102%	98.8%	100%	102%	106%	107%	105%	106%	110%	98.8%	104%	104%	94.3%	97.1%	93.1%	95.2%	99.2%	96.3%	93.3%	95%	101%	89.5%	105%
CO[C@H]1/C=C/O[C@@]2(C)Oc3c(C)c(O)c4c(O)c(c5c(nc6cc(C)ccn65)c4c3C2=O)NC(=O)/C(C)=C\C=C\[C@H](C)[C@H](O)[C@@H](C)[C@@H](O)[C@@H](C)[C@H](OC(C)=O)[C@@H]1C	108%	98.3%	107%	106%	107%	106%	104%	102%	50.2%	89.4%	9.34%	103%	103%	113%	102%	114%	101%	94.1%	103%	46.5%	72.8%	35.1%	105%	100%	101%	99.9%	101%	97.7%	102%	92.9%	41.8%	77.3%	33.7%
Cn1c(=O)c2c(ncn2C)n(C)c1=O.O=C(O)CC(O)(CC(=O)O)C(=O)O	108%	106%	112%	111%	111%	113%	105%	105%	96.8%	101%	93.1%	116%	119%	126%	126%	121%	117%	115%	116%	120%	110%	107%	106%	114%	110%	111%	110%	109%	105%	114%	113%	106%	96.3%
CC(=O)N(C)c1cccc(-c2ccnc3c(C(=O)c4cccs4)cnn23)c1	103%	115%	109%	101%	108%	110%	99.8%	120%	103%	99.3%	94.5%	106%	96.8%	88.5%	80.9%	102%	101%	107%	90.5%	95.8%	88.1%	90.2%	105%	98.7%	105%	88%	93.9%	103%	107%	89.7%	95%	90.3%	92%
Cc1nc(NC(=O)N2CCC[C@H]2C(N)=O)sc1-c1ccnc(C(C)(C)C(F)(F)F)c1	96.4%	100%	97.1%	93.3%	97.7%	92.4%	89.8%	87.6%	72.2%	62.9%	83.2%	89.4%	89.2%	95.4%	93.7%	90.6%	86.9%	79.6%	76.2%	57.5%	48.3%	77.8%	97.9%	92.4%	94.4%	91.8%	93.4%	81.5%	86.7%	78.9%	63.7%	51.6%	83.3%
CCCc1nc(C(C)(C)O)c(C(=O)O)n1Cc1ccc(-c2ccccc2-c2nn[nH]n2)cc1	111%	115%	112%	117%	115%	125%	120%	119%	122%	125%	128%	109%	114%	102%	110%	116%	130%	124%	123%	126%	138%	109%	103%	70.5%	107%	107%	117%	118%	116%	117%	118%	128%	135%
CN(CC#C)C/C1=C/C2=CC=CC=C2OC3=CC=CC=C13	91%	85%	92%	87.6%	90.8%	89.6%	90.1%	80.8%	84.1%	83%	87.1%	91.8%	86.1%	88.2%	91.2%	92.6%	84.7%	76.5%	83.3%	78.4%	83.1%	82%	83.3%	81%	89.8%	87.8%	88%	87.9%	88.4%	76.5%	77.2%	82%	78.4%
Cc1ccccc1C(C(=O)NC1CCCCC1)N(C(=O)Cn1ccnc1C)c1cccc(F)c1 (centres undefined)	117%	114%	115%	105%	105%	104%	109%	104%	104%	102%	102%	100%	113%	105%	106%	105%	101%	103%	102%	93.1%	102%	97.1%	96.2%	103%	104%	104%	102%	100%	98.7%	97.9%	95.2%	93.1%	97.3%
CC1CCC(C(=O)N(c2cc(C#CC(C)(C)C)sc2C(=O)O)C2CCC(O)CC2)CC1 (centres undefined)	102%	91.2%	98.4%	95.9%	95.1%	95.7%	93.1%	88.2%	83.2%	59.5%	49%	91.2%	96.3%	92.4%	92.5%	95.6%	87%	96.7%	75.9%	71.9%	49.2%	45.5%	85.8%	92.4%	77.3%	95%	86.3%	83.8%	88.5%	77.4%	69.2%	54.3%	38.4%
C/C=C1\NC(=O)[C@H]2CSSCC/C=C\[C@H](CC(=O)N[C@H](C(C)C)C(=O)N2)OC(=O)[C@H](C(C)C)NC1=O	109%	102%	104%	106%	2.7%	2.94%	2.82%	2.88%	4.38%	1.48%	2.87%	97.9%	110%	111%	110%	2.34%	2.68%	2.61%	2.36%	3.14%	1.58%	2.72%	98.9%	106%	108%	107%	3.38%	3.46%	3.34%	2.6%	3.15%	3.95%	2.58%
